Measurements: patent publication US11078213B2, “Thienopyrimidine compound, preparation method thereof, pharmaceutical composition and application thereof” (HONGYUN BIOTECH CO., LTD., priority 2016, dated 2021)

target: T1, NPM-ALK-BaF3 (Homo sapiens, UniProt Q9UM73); experiment: Growth inhibition of BaF3 cells stably transfected with kinase NPM-ALK (MTS); format: cell-based; conditions: compound concentration 3.3 μM, read-out: cell growth inhibition rate, NPM-ALK
T1 construct: NPM (nuclear phosphoprotein / nucleophosmin, NPM1, P06748) fusion partner; expressed in transfected cells; host or cells: BaF3; the other entry of the earlier key: NPM1 (P06748, Nucleophosmin)
Procedure: (§1) The specific test method is given as follows:
(§2) 2) Reagent: MTS reaction solution (containing 2 mg/mL of MTS [3-(4,5-dimethylthiazol-2-yl)-5-(3-carboxymethoxyphenyl)-2-(4-sulfophenyl)-2H-tetra zolium, inner Salt]; 100 µg/mL PES ([…])).

T1 sequence (Q9UM73 with tags, fused parts or gaps): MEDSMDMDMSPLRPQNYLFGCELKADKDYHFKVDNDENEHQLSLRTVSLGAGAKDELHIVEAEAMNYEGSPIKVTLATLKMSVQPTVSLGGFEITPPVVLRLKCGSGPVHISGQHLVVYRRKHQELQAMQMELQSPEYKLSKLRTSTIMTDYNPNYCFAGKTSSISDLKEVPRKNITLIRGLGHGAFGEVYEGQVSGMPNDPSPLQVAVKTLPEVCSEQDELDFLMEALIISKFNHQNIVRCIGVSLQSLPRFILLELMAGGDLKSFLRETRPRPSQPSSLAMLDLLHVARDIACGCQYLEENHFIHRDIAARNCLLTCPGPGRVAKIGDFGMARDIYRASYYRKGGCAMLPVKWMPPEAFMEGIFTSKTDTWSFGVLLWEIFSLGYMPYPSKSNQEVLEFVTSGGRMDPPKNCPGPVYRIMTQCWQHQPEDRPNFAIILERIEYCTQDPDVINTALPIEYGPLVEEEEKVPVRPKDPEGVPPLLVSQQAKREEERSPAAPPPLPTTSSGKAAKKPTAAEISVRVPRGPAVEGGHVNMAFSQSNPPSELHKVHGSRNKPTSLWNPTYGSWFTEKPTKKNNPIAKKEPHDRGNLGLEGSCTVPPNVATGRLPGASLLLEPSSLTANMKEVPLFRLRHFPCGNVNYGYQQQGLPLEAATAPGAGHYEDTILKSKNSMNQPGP

inhibition at 3.3 µM | Structure (SMILES)
46.5% | CC(C)S(=O)(=O)c1nn(C)cc1Nc1nc(Nc2ccc(N3CCN(C)CC3)cc2)nc2ccsc12 [IC-3]
97.5% | CC(C)S(=O)(=O)c1ccccc1Nc1nc(Nc2ccc(C(=O)N3CCC(N4CCN(C)CC4)CC3)cc2)nc2ccsc12 [IB-29]
21.6% | CS(=O)(=O)Nc1cccc(Nc2nc(Nc3ccc(N4CCC(O)CC4)cc3)nc3ccsc23)c1 [IG-3]
45.8% | CS(=O)(=O)c1ccccc1CNc1nc(Nc2ccc(N3CCC(O)CC3)cc2)nc2ccsc12 [IL-4]
55.9% | CC(C)S(=O)(=O)c1ccccc1Nc1nc(Nc2ccc(N3CCC(O)CC3)cn2)nc2ccsc12 [IB-12]
84.1% | CNC(=O)c1ccccc1Nc1nc(Nc2ccc(N3CCN(C)CC3)cc2OC)nc2ccsc12 [II-3]
77.5% | CC(C)S(=O)(=O)c1ccccc1Nc1nc(Nc2ccc(N3CCOCC3)nc2)nc2ccsc12 [IB-16]
97.4% | CC(C)S(=O)(=O)c1ccccc1Nc1nc(Nc2ccc(N3CCN(C)CC3)cn2)nc2ccsc12 [IB-24]
93.2% | CC(C)S(=O)(=O)c1ccccc1Nc1nc(Nc2ccc(N3CCC(N4CCN(C)CC4)CC3)cc2)nc2ccsc12 [IB-6]
88.5% | Cc1cc(Nc2nc(Nc3ccccc3S(=O)(=O)C(C)C)c3sccc3n2)c(OC(C)C)cc1C1CCN(C)CC1 [IB-9]
90.3% | CCOc1cc(C(=O)N2CCC(N3CCN(C)CC3)CC2)ccc1Nc1nc(Nc2ccccc2S(=O)(=O)C(C)C)c2sccc2n1 [IB-13]
66.1% | CC(C)Oc1cc(N2CCC(O)CC2)ccc1Nc1nc(Nc2ccccc2S(=O)(=O)C(C)C)c2sccc2n1 [IB-18]
87.3% | COc1cc(C(=O)N2CCC(N3CCN(C)CC3)CC2)ccc1Nc1nc(Nc2ccccc2S(=O)(=O)C(C)C)c2sccc2n1 [IB-22]
66% | CC(C)S(=O)(=O)c1ccccc1Nc1nc(Nc2ccc(OCc3ccccn3)cc2)nc2ccsc12 [IB-20]
60.9% | CC(C)S(=O)(=O)c1ccccc1Nc1nc(Nc2ccc(S(=O)(=O)N3CCC(O)CC3)cc2)nc2ccsc12 [IB-11]
83.3% | CC(C)S(=O)(=O)c1ccccc1Nc1nc(Nc2ccc(N3CCOCC3)cc2)nc2ccsc12 [IB-15]
53.1% | CC(C)S(=O)(=O)c1ccccc1CNc1nc(Nc2ccc(N3CCC(O)CC3)cc2)nc2ccsc12 [IM-4]
61.4% | CC(C)S(=O)(=O)c1ccccc1Nc1nc(Nc2ccc(N3CCN(C(=O)OC(C)(C)C)CC3)cc2)nc2ccsc12 [IB-25]
20.6% | COc1cc(N2CCC(N3CCN(C)CC3)CC2)ccc1Nc1nc(NCc2ccccc2S(=O)(=O)C(C)C)c2sccc2n1 [IM-2]
83.7% | COc1cc(N2CCN(C)CC2)ccc1Nc1nc(Nc2ccccc2S(=O)(=O)C(C)C)c2sccc2n1 [IB-8]
54.8% | COc1cc(N2CCC(N3CCN(C)CC3)CC2)ccc1Nc1nc(NCc2ccccc2S(C)(=O)=O)c2sccc2n1 [IL-2]
15.1% | CS(=O)(=O)Nc1ccccc1Nc1nc(Nc2ccc(S(N)(=O)=O)cc2)nc2ccsc12 [IH-7]
73.4% | COC(=O)c1cccc(Nc2nc(Nc3cc4c(cc3OC)CCN4C(=O)CN(C)C)nc3ccsc23)c1 [ID-1]
44.7% | COC(=O)c1cccc(Nc2nc(Nc3ccc(N4CCN(C)CC4)cc3OC)nc3ccsc23)c1 [ID-2]
46.6% | CCOc1cc(N2CCN(C)CC2)ccc1Nc1nc(Nc2ccccc2C(=O)NC)c2sccc2n1 [II-4]

Second part, the compound before the results:

Structure (SMILES) | inhibition at 3.3 µM
CC(C)S(=O)(=O)c1ccccc1CNc1nc(Nc2ccc(N3CCN(C)CC3)cc2)nc2ccsc12 [IM-3] | 52.5%
COc1cc(N2CCC(N3CCN(C)CC3)CC2)ccc1Nc1nc(Nc2ccccc2NS(C)(=O)=O)c2sccc2n1 [IH-2] | 85.1%
COc1cc(N2CCC(N3CCN(C)CC3)CC2)ccc1Nc1nc(Nc2cccc(NS(C)(=O)=O)c2)c2sccc2n1 [IG-2] | 17.4%
COc1cc(N2CCC(N3CCCC3)CC2)ccc1Nc1nc(Nc2ccccc2S(=O)(=O)C(C)C)c2sccc2n1 [IB-7] | 92.8%
COc1cc(C2CCN(C)CC2)c(C)cc1Nc1nc(Nc2ccccc2S(C)(=O)=O)c2sccc2n1 [IA-5] | 90.9%
COc1cc(C2CCN(C)CC2)c(C)cc1Nc1nc(Nc2ccccc2S(=O)(=O)C(C)C)c2sccc2n1 [IB-5] | 88.9%
CN1CCN(c2ccc(Nc3nc(NCc4ccccc4S(C)(=O)=O)c4sccc4n3)cc2)CC1 [IL-3] | 56.8%
CNC(=O)c1ccccc1Nc1nc(Nc2ccc(N3CCN(C)CC3)cc2)nc2ccsc12 [II-2] | 28.1%
CC(C)S(=O)(=O)c1ccccc1Nc1nc(Nc2ccc(N3CCC(O)CC3)cc2)nc2ccsc12 [IB-4] | 96%
CS(=O)(=O)Nc1ccccc1Nc1nc(Nc2ccc(N3CCC(O)CC3)cc2)nc2ccsc12 [IH-4] | 26.7%
CC(C)S(=O)(=O)c1ccccc1Nc1nc(Nc2ccc(N3CCN(C)CC3)cc2)nc2ccsc12 [IB-3] | 94.2%
COc1cc(N2CCC(O)CC2)ccc1Nc1nc(Nc2ccccc2S(=O)(=O)C(C)C)c2sccc2n1 [IB-19] | 84.9%
CC(C)S(=O)(=O)c1ccccc1Nc1nc(Nc2ccc(N3CCC(O)CC3)nc2)nc2ccsc12 [IB-23] | 96.7%
COc1cc2c(cc1Nc1nc(Nc3cccc(NS(C)(=O)=O)c3)c3sccc3n1)N(C(=O)CN(C)C)CC2 [IG-1] | 22.2%
COc1cc2c(cc1Nc1nc(NCc3ccccc3S(C)(=O)=O)c3sccc3n1)N(C(=O)CN(C)C)CC2 [IL-1] | 73.7%
CC(C)S(=O)(=O)c1nn(C)cc1Nc1nc(Nc2ccc(N3CCC(O)CC3)cc2)nc2ccsc12 [IC-4] | 53.2%
CC(C)S(=O)(=O)c1ccccc1Nc1nc(Nc2ccc(C(=O)N3CCN(C)CC3)cc2)nc2ccsc12 [IB-26] | 97.3%
COc1cc2c(cc1Nc1nc(Nc3cn(C)nc3S(=O)(=O)C(C)C)c3sccc3n1)N(C(=O)CN(C)C)CC2 [IC-1] | 82.4%
CNC(=O)c1ccccc1Nc1nc(Nc2ccc(N3CCC(N4CCN(C)CC4)CC3)cc2OC)nc2ccsc12 [II-1] | 46.3%
COc1cc2c(cc1Nc1nc(NCc3ccccc3S(=O)(=O)C(C)C)c3sccc3n1)N(C(=O)CN(C)C)CC2 [IM-1] | 94.2%
CC(C)S(=O)(=O)c1ccccc1Nc1nc(Nc2ccc(S(=O)(=O)N3CCN(C)CC3)cc2)nc2ccsc12 [IB-21] | 72.1%
COc1cc2c(cc1Nc1nc(Nc3ccccc3NS(C)(=O)=O)c3sccc3n1)N(C(=O)CN(C)C)CC2 [IH-1] | 12.7%
CCOc1cc(N2CCN(C)CC2)ccc1Nc1nc(Nc2ccccc2S(=O)(=O)C(C)C)c2sccc2n1 [IB-28] | 96.5%
COc1cc(N2CCN(C)CC2)ccc1Nc1nc(Nc2ccccc2NS(C)(=O)=O)c2sccc2n1 [IH-3] | 79.2%
CS(=O)(=O)Nc1cccc(Nc2nc(Nc3ccc(S(N)(=O)=O)cc3)nc3ccsc23)c1 [IG-6] | 3.07%
COc1cc(N2CCC(N3CCN(C)CC3)CC2)ccc1Nc1nc(Nc2cn(C)nc2S(=O)(=O)C(C)C)c2sccc2n1 [IC-2] | 55%
CCOc1cc(N2CCC(O)CC2)ccc1Nc1nc(Nc2ccccc2S(=O)(=O)C(C)C)c2sccc2n1 [IB-17] | 86%
CNC(=O)c1ccccc1Nc1nc(Nc2ccc(N3CCC(O)CC3)cc2)nc2ccsc12 [II-5] | 31.6%

target: T2, EML4-ALK-BaF3 (Homo sapiens, UniProt Q9UM73); experiment: Growth inhibition of BaF3 cells stably transfected with kinase EML4-ALK (MTS); format: cell-based; conditions: compound concentration 3.3 μM, read-out: cell growth inhibition rate, EML4-ALK
T2 construct: EML4 (echinoderm microtubule associated protein like 4, Q9HC35) fusion partner; expressed in transfected cells; host or cells: BaF3; the other entry of the earlier key: EML4 (Q9HC35, Echinoderm microtubule-associated protein-like 4)
Procedure: as §1, §2

T2 sequence (Q9UM73 1058-1620 limits assumed): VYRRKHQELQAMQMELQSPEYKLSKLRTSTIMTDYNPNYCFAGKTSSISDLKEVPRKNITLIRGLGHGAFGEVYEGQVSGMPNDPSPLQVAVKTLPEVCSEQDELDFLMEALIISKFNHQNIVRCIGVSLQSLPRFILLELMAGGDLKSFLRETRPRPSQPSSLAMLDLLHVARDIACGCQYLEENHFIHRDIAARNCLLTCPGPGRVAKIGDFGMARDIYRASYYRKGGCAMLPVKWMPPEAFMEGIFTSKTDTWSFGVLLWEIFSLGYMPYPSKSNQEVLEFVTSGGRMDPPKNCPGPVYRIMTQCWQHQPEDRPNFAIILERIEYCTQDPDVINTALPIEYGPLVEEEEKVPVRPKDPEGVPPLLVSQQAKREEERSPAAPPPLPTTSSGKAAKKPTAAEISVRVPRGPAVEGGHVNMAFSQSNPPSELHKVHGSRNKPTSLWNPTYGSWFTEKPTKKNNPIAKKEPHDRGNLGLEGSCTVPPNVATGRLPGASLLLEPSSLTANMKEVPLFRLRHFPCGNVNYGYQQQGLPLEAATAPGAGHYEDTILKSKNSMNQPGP

inhibition at 3.3 µM | Structure (SMILES)
95% | COc1ccc(NC(=O)CN(C)C)cc1Nc1nc(Nc2ccccc2S(=O)(=O)C(C)C)c2sccc2n1 [IB-32]
98.7% | COc1cc(N2CCN(C)CC2)ccc1Nc1nc(Nc2ccccc2S(=O)(=O)C(C)(C)C)c2sccc2n1 [IO-3]
101% | CCP(=O)(CC)c1ccccc1Nc1nc(Nc2ccc(N3CCC(N4CCN(C)CC4)CC3)cc2OC)nc2ccsc12 [IS-3]
98.3% | COc1cc(N2CCC(N(C)C)CC2)ccc1Nc1nc(Nc2ccccc2P(=O)(C(C)C)C(C)C)c2sccc2n1 [IR-5]

The remaining lines, values behind:

Structure (SMILES) | inhibition at 3.3 µM
CC(C)S(=O)(=O)c1ccccc1COc1nc(Nc2ccc(N3CCOCC3)cc2)nc2ccsc12 [IT-4] | 100%
COc1cc(N2CCC(N3CCN(C)CC3)CC2)ccc1Nc1nc(Nc2ccccc2C(=O)NC(C)C)c2sccc2n1 [IP-1] | 97.4%
CCP(=O)(CC)c1ccccc1Nc1nc(Nc2ccc(N3CCN(C)CC3)cc2OC)nc2ccsc12 [IS-4] | 103%
CC(C)P(=O)(c1ccccc1Nc1nc(Nc2ccc(N3CCN(C)CC3)cc2)nc2ccsc12)C(C)C [IR-6] | 98.3%
COc1cc(N2CCC(N3CCN(C)CC3)CC2)ccc1Nc1nc(OCc2ccccc2S(=O)(=O)C(C)C)c2sccc2n1 [IT-3] | 87.8%
COc1cc(N2CCC(N(C)C)CC2)ccc1Nc1nc(Nc2ccccc2S(=O)(=O)C(C)(C)C)c2sccc2n1 [IO-4] | 97%
COc1cc(N2CCC(N3CCN(C)CC3)CC2)ccc1Nc1nc(Nc2ccccc2S(=O)(=O)C(C)(C)C)c2sccc2n1 [IO-2] | 96%
COc1cc(N2CCC(N(C)C)CC2)ccc1Nc1nc(Nc2ccccc2S(=O)(=O)C(C)C)c2sccc2n1 [IB-31] | 98.1%
CCP(=O)(CC)c1ccccc1Nc1nc(Nc2cc3c(cc2OC)CCN3C(=O)CN(C)C)nc2ccsc12 [IS-1] | 98.7%
COc1cc2c(cc1Nc1nc(OCc3ccccc3S(=O)(=O)C(C)C)c3sccc3n1)N(C(=O)CN(C)C)CC2 [IT-1] | 99.8%
COc1cc(N2CCN(C)CC2)ccc1Nc1nc(Nc2ccccc2C(=O)NC(C)C)c2sccc2n1 [IP-2] | 97.3%
COc1cc(N2CCC(N(C)C)CC2)ccc1Nc1nc(OCc2ccccc2S(=O)(=O)C(C)C)c2sccc2n1 [IT-5] | 101%
